In ChEMBL document CHEMBL4043248, “Structure-activity relationship study of β-oxidation resistant indole-based 5-oxo-6,8,11,14-eicosatetraenoic acid (5-oxo-ETE) receptor antagonists” (Bioorg Med Chem Lett, 2017):

These compounds were tested against Oxoeicosanoid receptor 1 (Homo sapiens, UniProt Q8TDS5) (assay: Antagonist activity at OXE receptor in human neutrophils assessed as inhibition of 5-oxo-ETE-induced calcium mobilization incubated for 2 mins followed by 5-oxo-ETE addition measured after 1 min by fluorescence assay).
Assay type: functional

Sequence of Oxoeicosanoid receptor 1 (Q8TDS5 whole entry): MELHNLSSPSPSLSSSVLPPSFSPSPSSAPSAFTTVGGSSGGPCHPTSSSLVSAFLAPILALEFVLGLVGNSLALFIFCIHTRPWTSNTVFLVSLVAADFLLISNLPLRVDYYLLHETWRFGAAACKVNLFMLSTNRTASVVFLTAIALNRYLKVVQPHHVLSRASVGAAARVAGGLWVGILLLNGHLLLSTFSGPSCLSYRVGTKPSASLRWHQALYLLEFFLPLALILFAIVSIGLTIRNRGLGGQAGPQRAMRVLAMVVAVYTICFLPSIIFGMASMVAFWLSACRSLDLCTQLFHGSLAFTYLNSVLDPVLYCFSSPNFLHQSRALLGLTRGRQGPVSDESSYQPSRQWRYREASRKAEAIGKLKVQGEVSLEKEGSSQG

Question: Which IC50 does the source give for `CCCCCCc1c(C(=O)COCC(=O)O)c2cc(Cl)ccc2n1C` here?
Answer: Its IC50 is 5.5 µM.

Question: With `CCCCCCc1c(C(=O)CC(C)CC(=O)O)c2cc(Cl)ccc2n1C` (stereo unspecified) as the compound, how does the IC50 read?
Answer: The IC50 was 0.016 to 0.02 µM.

Question: For `CCCCCCc1c(C(=O)c2cccc(C(=O)O)c2)c2cc(Cl)ccc2n1C`, which IC50 is on record?
Answer: Its IC50 is 1.12 µM.

Question: With `CCCCCCc1c(C(=O)CC(C)(C)CC(=O)O)c2cc(Cl)ccc2n1C` as the compound, how does the IC50 read?
Answer: Its IC50 is 1.33 µM.

Question: With `CCCCCCCCCCCc1c(C(=O)CC(C)CC(=O)O)c2cc(Cl)ccc2n1C` (stereo unspecified) as the compound, how does the IC50 read?
Answer: The IC50 was 0.023 µM.

Question: For `CCCCCCc1c(C(=O)CC2(CC(=O)O)CCC2)c2cc(Cl)ccc2n1C`, which IC50 is on record?
Answer: The IC50 was 0.72 µM.

Question: For `CCCCCCc1c(C(=O)CC2(CC(=O)O)CC2)c2cc(Cl)ccc2n1C`, which IC50 is on record?
Answer: Its IC50 is 0.58 µM.

Question: With `CCCCCCc1c(C(=O)C[C@@H](C)CC(=O)O)c2cc(Cl)ccc2n1C` as the compound, how does the IC50 read?
Answer: Its IC50 is 2.7 µM.

Question: Which IC50 does the source give for `CCCCCCc1c(C(=O)CCC(C)(C)C(=O)O)c2cc(Cl)ccc2n1C` here?
Answer: Its IC50 is 4.06 µM.

Question: For `CCCCCCc1c(C(=O)C(C)(C)CCC(=O)O)c2cc(Cl)ccc2n1C`, which IC50 is on record?
Answer: Its IC50 is 8.15 µM.

Question: `CCCCCCc1c(C(=O)c2ccc(C(=O)O)cc2)c2cc(Cl)ccc2n1C` was tested. Which IC50 did it give?
Answer: The IC50 was 1.36 µM.
